Test: Heavy metal (ferrous ion-Ferrozine) chelation assay
Assay type: biochemical
Settings: Fe2+ chelation; calculated based on unpreserved extract dry weight
Procedure: The IC50 refers to the amount of extract required to chelate 50% of the available iron (II) in the assay. The lower the number, the higher the chelation power of an extract.
The ability of Inula extract to act as an anti-pollutant or antagonist of the adverse effects of pollutants and/or toxins in pollutants was further investigated in heavy metal chelation assays. Further to this objective, Inula extracts was tested in in vitro assay to assess its chelator power. In this assay, the ferrous ion is used as a model for heavy metals. The concentration of the ferrous iron-Ferrozine complex was measured by spectrophotometry (absorbance at 562 nm) to determine the Fe 2+-chelating ability of the extract or fraction. The reaction mixture, containing 2 Mm FeCl2 and 5 mM ferrozine was adjusted to 2 ml with bi-distilled water. The mixture was shaken and incubated for 10 min at room temperature. The absorbance of the mixture was measured at 562 nm against a blank EDTA was used as positive control. The choice of an internal reference may be adjusted in accordance with the heavy metal assay performed and such references are known in the art. Chelating power is expressed as an IC50 value (mg/ml) and reflects the concentration at which 50% of the available iron was chelated by, for example, supplemental extract added to the assay mix.

Question: For O=C(O)CN(CCN(CC(=O)O)CC(=O)O)CC(=O)O [EDTA (reference), EDTA], which “IC50* (mg/ml DRY WEIGHT)” value is on record?
Answer: 0.038 mg/ml DRY WEIGHT
